Measurements published in US20080250710A1, “Low Light Cultivation Method and Plant Growth Promoting Agent” (priority 2005, published 2008).

Columns and labels:
[1] = system: morning glory (Pharbitis nil var. Violet) seedlings; experiment: Low light cultivation experiment: number of days until lodging of morning glory young plants; assay type: in vivo; conditions: for Average value (days) of the numbers of days until lodging: 250 mL per pot once every four days, 200 lux, 23° C.; for effectiveness to low light cultivation (days until lodging versus control test solution): verdict in words
Description: As a plant, morning glory (Pharbitis nil var. Violet) seedlings (day 7 after germination) were used. Experiments were conducted in an incubator (low temperature of 23° C.) in daily cycles where a light period (200 lux) is 14 hours and a dark period is 10 hours in a day. Morning glory seeds (purchased from Marutane Co., Ltd., Kyoto) were sown in black plastic pots (commercially available No. 105 size: diameter 105 cm, height 90 cm). Vermiculite was used as culture medium (the wet weight of vermiculite in a pot was 350 g).
250 mL of a test solution was given to each pot once every four days. Test data was taken from 10 morning glory seedlings (young plants) grown per pot. After start of the test, the number of seedlings that lodged was counted every day. A lodging criterion is that the hypocotyl (a rachis under a cotyledon) of a young plant lodges and the cotyledon contacts culture medium, or the whole cotyledon died. Lodged young plants were removed each time. Note that the effect was evaluated using the average value of the numbers of days until lodging. The average value was calculated as follows. For example, when three plants lodged on day 9, four plants lodged on day 10, and three plants lodged on day 11, then the average value is 10.0 (=(9×3+10×4+11×3)/10).
Eight organic acids (aminolevulinic acid, citric acid, malic acid, succinic acid, tartaric acid, acetic acid, oxalic acid, and lactic acid) were prepared. Each organic acid was dissolved in a 500-fold dilution of a liquid fertilizer (VIGOR LIFE V) (a solution in which VIGOR LIFE V was diluted 500-fold with distilled water). Thereafter, the solution was adjusted to pH 5.0 with potassium hydroxide. Note that the organic acid concentration of each test solution was 5 mM.
A 500-fold dilution of VIGOR LIFE V was used as a control test solution.
The eight test solutions and the control test solution were used to conduct the low light cultivation experiment. Note that the upper row of Table 1 indicates the organic acids contained in the test solutions (the control test solution contained no organic acid). Also, the lower row of Table 1 indicates the average values (days) of the numbers of days until lodging of the morning glory young plants.
Six sugars (sucrose, glucose, fructose, trehalose, palatinose, and xylose) were prepared. Each sugar was dissolved in a 500-fold dilution of a liquid fertilizer (VIGOR LIFE V) (a solution in which VIGOR LIFE V was diluted 500-fold with distilled water). Note that the sugar concentration of each test solution was 3%.
Also, a 500-fold dilution of VIGOR LIFE V was used as a control test solution. […]
Note that the upper row of Table 2 indicates the sugars contained in the test solutions (the control test solution contained no sugar). Also, the lower row of Table 2 indicates the average values (days) of the numbers of days until lodging of the morning glory young plants.

[2] = system: houseplant weeping fig (Ficus benzyamina); experiment: Low light cultivation of weeping fig: leaf survival ratio; assay type: in vivo; conditions: after four weeks, verdict in words
Description: The inorganic solution was used as a control reagent. (Reagent 1: the inorganic solution in which aminolevulinic acid is dissolved, Reagent 2: the inorganic solution in which citric acid is dissolved, and Reagent 3: the inorganic solution in which citric acid and sucrose are dissolved).
Note that, in respective reagents, the citric acid concentration was 5 mM, the sucrose concentration was 3%, and the aminolevulinic acid concentration was 100 ppm. The reagents containing citric acid (Reagent 2 and Reagent 3) were adjusted to pH 5.0 with potassium hydroxide.
Low light cultivation was conducted using the reagents and a houseplant weeping fig, with two methods below.
Regular cultivation: four commercially available weeping fig plants in No. 4-sized pots were prepared. The four reagents (Reagents 1 to 3 and the control reagent) were given to the respective plants in an amount of 50 mL once (Monday) every week. Watering was performed in an amount of 50 mL twice (Wednesday and Friday) every week. […]
The effect of each reagent was evaluated by counting the number of leaves for each pot and calculating the survival ratio (%) of leaves every week. Note that the leaf survival ratio (%) was calculated as a “survival ratio (%)=the number of counted weeping fig leaves/the number of weeping fig leaves before low light cultivation (initial value)×100”.

[3] = sugar 3% in 500-fold dilution of VIGOR LIFE V
[4] = organic acid 5 mM in 500-fold dilution of VIGOR LIFE V, pH 5.0

| SMILES | Average value (days) of the numbers of days until lodging [1, 3] [days] | Average value (days) of the numbers of days until lodging [1, 4] [days] | other results |
| --- | --- | --- | --- |
| OC[C@H]1O[C@@](CO)(O[C@H]2O[C@H](CO)[C@@H](O)[C@H](O)[C@H]2O)[C@@H](O)[C@@H]1O [Sucrose, sucrose] | 25.9 | – | effectiveness to low light cultivation (days until lodging versus control test solution) ([1]; sugar 3%): particularly effective |
| O=C(O)CCC(=O)O [Succinic acid, succinic acid] | – | 10.4 | effectiveness to low light cultivation (days until lodging versus control test solution) ([1]; organic acid 5 mM, pH 5.0): effective |
| NCC(=O)CCC(=O)O [Aminolevulinic acid, aminolevulinic acid, reference compound] | – | 2.5 | – |
| O=C(CO)[C@@H](O)[C@H](O)[C@H](O)CO [Fructose, fructose] | 22.1 | – | effectiveness to low light cultivation (days until lodging versus control test solution) ([1]; sugar 3%): particularly effective |
| CC(=O)O [Acetic acid, acetic acid] | – | 3.9 | – |
| O=C(O)CC(O)(CC(=O)O)C(=O)O [Citric acid, citric acid] | – | 12.9 | effectiveness to low light cultivation (days until lodging versus control test solution) ([1]; organic acid 5 mM, pH 5.0): effective; effectiveness to low light cultivation (leaf survival ratio versus control reagent) [2]: effective |
| O=C[C@H](O)[C@@H](O)[C@H](O)CO [Xylose, xylose] | 10.1 | – | – |
| O=C(O)C(=O)O [Oxalic acid, oxalic acid] | – | 3.7 | – |
| OC[C@H]1O[C@H](O[C@H]2O[C@H](CO)[C@@H](O)[C@H](O)[C@H]2O)[C@H](O)[C@@H](O)[C@@H]1O [Trehalose, trehalose] | 21.9 | – | effectiveness to low light cultivation (days until lodging versus control test solution) ([1]; sugar 3%): particularly effective |
| CC(O)C(=O)O (centres unmarked) [Lactic acid, lactic acid] | – | 6.1 | – |
| OC[C@H]1O[C@H](OC[C@H]2OC(O)(CO)[C@@H](O)[C@@H]2O)[C@H](O)[C@@H](O)[C@@H]1O (some centres unmarked) [Palatinose, palatinose] | 9.6 | – | – |
| O=C(O)CC(O)C(=O)O (centres unmarked) [Malic acid, malic acid] | – | 11.1 | effectiveness to low light cultivation (days until lodging versus control test solution) ([1]; organic acid 5 mM, pH 5.0): effective |
| O=C(O)C(O)C(O)C(=O)O (centres unmarked) [Tartaric acid, tartaric acid] | – | 4.9 | – |
